Experiments:
[1] = Stability study, Experiment 1: dry product stored at 5° C. under inert atmosphere in the dark for 3 months; assay type: physicochemical; conditions: storage 5° C.; for Stability over time: 3 months
Procedure: (§1) The analysis by HPLC is carried out according to the method of the European Pharmacopeia 2.2.29, as indicated below.
(§2) Residual moisture content: halogen loss on desiccation in a desiccator 5 g/90° C./20 min.
(§3) Water content: according to European Pharmacopeia 2.5.12, titration carried out by Karl Fisher titration on 1 g of ASL.
(§4) according to European Pharmacopeia 2.2.3, a solution is reconstituted by dissolving 1 g of ASL in 10 ml of water free of carbon dioxide, with stirring for 30 s. Its appearance is evaluated and its pH is measured.
(§5) Content of each unknown impurity: by HPLC assay, according to the operating protocol described above. The content of each impurity is determined by means of the following equation: […]
A study of stability of the product obtained in example 1 is carried out by storing the dry product under an inert atmosphere and in the dark, at a temperature of 5° C., for a period of 3 months.
At times T=0, T=1 month and T=3 months, a sample of product is taken and subjected to all the tests described in example 2.
By way of comparative example, the same experiment is carried out on a product obtained by means of the preparation process of the prior art described in document WO 2011/039432, providing in particular a molar deficiency in DL-lysine (more specifically, with an acetylsalicylic acid/DL lysine molar ratio equal to 1/0.89).

[2] = Stability study, Experiment 2: dry product (new synthesis batch) stored at 5° C. under inert atmosphere in the dark for 6 months; assay type: physicochemical; set-up: key to Appearance of the powder / Appearance of the reconstituted solution: C = complies; conditions: storage 5° C.
Procedure: as §1, §2, §3, §4, §5
A study of stability of the product obtained in example 1 (new synthesis batch) is carried out by storing the dry product under an inert atmosphere and in the dark, at a temperature of 5° C., for a period of 6 months.
At times T=0, T=1 month, T=3 months and T=6 months, a sample of product is taken and subjected to all the tests described in example 2.

[3] = time 0 months, listed as Method in accordance with the invention
[4] = time 1 month, listed as Method in accordance with the invention
[5] = time 3 months, listed as Method in accordance with the invention

Substance: DL-lysine acetylsalicylate [Process of WO 2011/039432, reference compound]
- Stability over time ([1]; listed as product obtained by means of a process of the prior art): much less stability over time
- HPLC content of acetylsalicylic acid (%) ([1]; time 0 months): 93.6%
- Impurities (%): Salicylic acid ([1]; time 0 months): 1.9%
- Residual moisture content (%) ([1]; time 0 months): 0.72%
- pH of the reconstituted solution ([1]; time 0 months): 5.2
- HPLC content of acetylsalicylic acid (%) ([1]; time 1 month): 90.0%
- Impurities (%): Other unknown impurity ([1]; time 1 month): 0.026%
- Impurities (%): Salicylic acid ([1]; time 1 month): 1.9%
- Impurities (%): Sum of the impurities ([1]; time 1 month): 0.09%
- Residual moisture content (%) ([1]; time 1 month): 0.61%
- pH of the reconstituted solution ([1]; time 1 month): 5.2
- HPLC content of acetylsalicylic acid (%) ([1]; time 3 months): 91.6%
- Impurities (%): Other unknown impurity ([1]; time 3 months): 0.027%
- Impurities (%): Salicylic acid ([1]; time 3 months): 2.0%
- Impurities (%): Sum of the impurities ([1]; time 3 months): 0.07%
- Residual moisture content (%) ([1]; time 3 months): 0.61%
- pH of the reconstituted solution ([1]; time 3 months): 5.1

Substance: DL-lysine acetylsalicylate [ASL]
- Stability over time ([1]; listed as product obtained by means of the method in accordance with the invention of exam): remains stable over time
- Impurities (%): Other unknown impurity ([1]; time 0 months): 0.02%
- Impurities (%): Sum of the impurities ([1]; time 0 months): 0.15%
- Water content (%) ([1]; time 0 months): 0.4%
- HPLC content of acetylsalicylic acid (%) [1, 3]: 98.3%
- Impurities (%): Salicylic acid [1, 3]: 0.13%
- Residual moisture content (%) [1, 3]: 0.4%
- pH of the reconstituted solution [1, 3]: 5.9
- Water content (%) ([1]; time 1 month): 0.5%
- HPLC content of acetylsalicylic acid (%) [1, 4]: 98.5%
- Impurities (%): Other unknown impurity [1, 4]: 0.02%
- Impurities (%): Salicylic acid [1, 4]: 0.17%
- Impurities (%): Sum of the impurities [1, 4]: 0.22%
- Residual moisture content (%) [1, 4]: 0.6%
- pH of the reconstituted solution [1, 4]: 5.6
- Water content (%) ([1]; time 3 months): 0.3%
- HPLC content of acetylsalicylic acid (%) [1, 5]: 98.8%
- Impurities (%): Other unknown impurity [1, 5]: 0.02%
- Impurities (%): Salicylic acid [1, 5]: 0.21%
- Impurities (%): Sum of the impurities [1, 5]: 0.25%
- Residual moisture content (%) [1, 5]: 0.6%
- pH of the reconstituted solution [1, 5]: 5.5
- Stability over time ([2]; 6 months): remains stable over time
- Appearance of the powder ([2]; time 0 months): C
- Appearance of the reconstituted solution ([2]; time 0 months): C
- HPLC content of acetylsalicylic acid (%) ([2]; time 0 months): 97.5%
- Impurities (%): Other unknown impurity ([2]; time 0 months): 0.03%
- Impurities (%): Salicylic acid ([2]; time 0 months): 0.28%
- Impurities (%): Sum of the impurities ([2]; time 0 months): 0.32%
- Residual moisture content (%) ([2]; time 0 months): 0.7%
- Water content (%) ([2]; time 0 months): 0.4%
- pH of the reconstituted solution ([2]; time 0 months): 5.7
- Appearance of the powder ([2]; time 1 month): C
- Appearance of the reconstituted solution ([2]; time 1 month): C
- HPLC content of acetylsalicylic acid (%) ([2]; time 1 month): 97.5%
- Impurities (%): Other unknown impurity ([2]; time 1 month): 0.03%
- Impurities (%): Salicylic acid ([2]; time 1 month): 0.28%
- Impurities (%): Sum of the impurities ([2]; time 1 month): 0.33%
- Residual moisture content (%) ([2]; time 1 month): 0.5%
- Water content (%) ([2]; time 1 month): 0.3%
- pH of the reconstituted solution ([2]; time 1 month): 5.8
- Appearance of the powder ([2]; time 3 months): C
- Appearance of the reconstituted solution ([2]; time 3 months): C
- HPLC content of acetylsalicylic acid (%) ([2]; time 3 months): 98.1%
- Impurities (%): Other unknown impurity ([2]; time 3 months): 0.03%
- Impurities (%): Salicylic acid ([2]; time 3 months): 0.29%
- Impurities (%): Sum of the impurities ([2]; time 3 months): 0.33%
- Residual moisture content (%) ([2]; time 3 months): 0.6%
- Water content (%) ([2]; time 3 months): 0.3%
- pH of the reconstituted solution ([2]; time 3 months): 5.4
- Appearance of the powder ([2]; time 6 months): C
- Appearance of the reconstituted solution ([2]; time 6 months): C
- HPLC content of acetylsalicylic acid (%) ([2]; time 6 months): 97.5%
- Impurities (%): Other unknown impurity ([2]; time 6 months): 0.03%
- Impurities (%): Salicylic acid ([2]; time 6 months): 0.30%
- Impurities (%): Sum of the impurities ([2]; time 6 months): 0.34%
- Residual moisture content (%) ([2]; time 6 months): 0.6%
- Water content (%) ([2]; time 6 months): 0.3%
- pH of the reconstituted solution ([2]; time 6 months): 6.3

— patent US9745246B2, “Method for preparing a salt of acetylsalicylic acid and a basic amino acid” (UNITHER PHARMACEUTICALS, priority 2014, dated 2017)
